Experimental data taken from article PMC6514686, “Tri-Cyclic Nucleobase Analogs and Their Ribosides as Substrates of Purine-Nucleoside Phosphorylases. II Guanine and Isoguanine Derivatives” (Molecules, 2019).
Like-named read-outs stand apart in the source and are kept apart here.

Columns and labels:
E. coli PNP [1] = biological target: T1, E. coli PNP (Escherichia coli, UniProt P0ABP8); test: inhibition of guanine ribosylation catalyzed by E. coli PNP; type: biochemical
T1 construct: made in house; host or cells: E. coli
Procedure: We conclude that inability of the enzyme to ribosylate (2) is not due to geometric hindrance, but rather should be ascribed to unfavorable energetic factors, in accordance with previous reports about the relative instability of the glycosidic bond in this compound [23].
(§1) N^2,3-etheno-O^6-methylguanine (3) effectively competes with guanine in the ribosylation process, acting as quasi inhibitor of the E. coli PNP, with estimated Kiapp value 7.5 ± 0.8 μM (competitive model; average of 3 determinations), in agreement with the Km value, estimated from kinetic data (see the previous paragraph).
(§2) For kinetic analyses, enzymatic ribosylation reactions were carried out in 1 mL cuvettes (pathlength 4 mm) in ~50 mM HEPES buffer, pH 7.3, using ca. 0.5 mM R1P as a ribose source. On a larger scale, reactions were run in Eppendorf tubes, volume 2–3 mL, using either R1P or 7-methylguanosine as ribose sources. Phosphorolysis reactions were run in 50 mM phosphate buffer, pH 7.0 or 6.5. Data were analyzed by standard methods (see Supplementary Materials).

[2] = ionization constants (spectrophotometric titrations)
[3] = biological target: T2, E.coli PNP-wt (purine-nucleoside phosphorylase) (Escherichia coli, UniProt P0ABP8); test: enzymatic ribosylation of nucleobase analogs by α-D-ribose-1-phosphate, E. coli PNP wild type; type: biochemical; conditions: for Vmax (relative): relative to Vmax of guanine ribosylation under the same conditions (=100), 40 mM HEPES, pH 7, error ~10%
T2 construct: made in house; host or cells: E. coli
T2 sequence (P0ABP8 2-239 limits assumed): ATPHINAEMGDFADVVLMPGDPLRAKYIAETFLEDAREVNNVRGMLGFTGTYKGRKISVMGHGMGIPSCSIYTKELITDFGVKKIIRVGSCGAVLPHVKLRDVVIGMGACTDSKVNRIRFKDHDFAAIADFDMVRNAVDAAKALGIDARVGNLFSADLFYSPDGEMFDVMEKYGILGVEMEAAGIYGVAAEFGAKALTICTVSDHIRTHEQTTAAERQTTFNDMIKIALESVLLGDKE
Procedure: (§3) […] 0.5 mM R1P as a ribose source. On a larger scale, reactions were run in Eppendorf tubes, volume 2–3 mL, using either R1P or 7-methylguanosine as ribose sources. Phosphorolysis reactions were run in 50 mM phosphate buffer, pH 7.0 or 6.5. Data were analyzed by standard methods (see Supplementary Materials).
(§4) Recombinant E. coli and calf spleen PNPs as well as their mutated forms were expressed in E. coli and purified according to the procedures described earlier.

calf PNP [4] = biological target: T3, calf PNP (Bos taurus, UniProt P55859); test: inhibition of guanine ribosylation catalyzed by calf PNP; type: biochemical; conditions: similar conditions as with E. coli PNP
T3 construct: made in house; host or cells: E. coli
T3 sequence (P55859 1-289): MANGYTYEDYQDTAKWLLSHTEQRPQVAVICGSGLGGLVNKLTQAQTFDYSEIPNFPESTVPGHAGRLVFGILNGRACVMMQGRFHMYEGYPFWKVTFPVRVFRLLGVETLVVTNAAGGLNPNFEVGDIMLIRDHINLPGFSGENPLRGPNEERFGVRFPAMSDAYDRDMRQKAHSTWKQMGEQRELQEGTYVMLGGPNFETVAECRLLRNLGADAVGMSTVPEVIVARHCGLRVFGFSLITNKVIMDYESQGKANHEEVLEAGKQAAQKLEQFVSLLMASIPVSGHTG
Procedure: as §1, §2

[5] = biological target: T4, calf PNP-wt (calf spleen purine-nucleoside phosphorylase) (Bos taurus, UniProt P55859); test: enzymatic ribosylation by α-D-ribose-1-phosphate, calf PNP wild type; type: biochemical; conditions: for Vmax (relative): relative to Vmax of guanine ribosylation under the same conditions (=100), 40 mM HEPES, pH 7, error ~10%
T4 construct: made in house; host or cells: E. coli
T4 sequence (P55859 1-289): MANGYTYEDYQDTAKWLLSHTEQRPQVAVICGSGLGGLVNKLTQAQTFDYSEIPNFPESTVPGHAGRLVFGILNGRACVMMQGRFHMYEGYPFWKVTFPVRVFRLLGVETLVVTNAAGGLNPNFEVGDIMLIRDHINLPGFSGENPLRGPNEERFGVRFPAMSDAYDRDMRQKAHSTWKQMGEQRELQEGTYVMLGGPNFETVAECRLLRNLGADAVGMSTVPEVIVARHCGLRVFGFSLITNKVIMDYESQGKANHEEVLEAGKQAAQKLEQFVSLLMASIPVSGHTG
Procedure: as §2, §4

calf PNP [6] = biological target: T3, calf PNP; test: phosphorolysis of nucleosides in phosphate buffer by calf PNP; type: biochemical
Procedure: as §2

E. coli PNP [7] = biological target: T1, E. coli PNP; test: phosphorolysis of nucleosides in phosphate buffer by E. coli PNP; type: biochemical; conditions: for phosphorolysis (in words): 50 mM phosphate buffer, pH 6.5
Procedure: as §2

E. coli PNP [8] = biological target: T1, E. coli PNP; design: method as in PMID 29376769; conditions: cited from earlier work
calf PNP [9] = biological target: T3, calf PNP; design: method as in PMID 29376769; conditions: cited from earlier work
E.coli PNP-mutantD204N = biological target: T5, E.coli PNP-mutantD204N (Escherichia coli, UniProt P0ABP8, D205N); test: enzymatic ribosylation by α-D-ribose-1-phosphate, E. coli PNP D204N mutant; type: biochemical; conditions: for Vmax (relative): relative to Vmax of guanine ribosylation under the same conditions (=100), 40 mM HEPES, pH 7, error ~10%
T5 construct: made in house; host or cells: E. coli
Procedure: as §2, §4

calf PNP-mutantN243D = biological target: T6, calf PNP-mutantN243D (Bos taurus, UniProt P55859, N243D); test: enzymatic ribosylation by α-D-ribose-1-phosphate, calf PNP N243D mutant; type: biochemical
T6 construct: made in house; host or cells: E. coli
T6 sequence (P55859 1-289 N243D): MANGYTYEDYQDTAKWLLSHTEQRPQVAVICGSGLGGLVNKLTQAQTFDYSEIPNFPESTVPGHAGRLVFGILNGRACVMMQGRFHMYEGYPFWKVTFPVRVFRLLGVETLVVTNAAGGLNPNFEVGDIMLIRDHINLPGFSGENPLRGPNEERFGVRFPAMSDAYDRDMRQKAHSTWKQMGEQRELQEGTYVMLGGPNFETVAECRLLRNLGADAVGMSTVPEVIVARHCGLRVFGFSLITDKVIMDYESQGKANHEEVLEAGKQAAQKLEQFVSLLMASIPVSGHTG
Procedure: as §2, §4

[10] = substrate: O=c1c2[nH]cnc2nc2[nH]ccn12; test: enzymatic ribosylation of nucleobase analogs by α-D-ribose-1-phosphate, E. coli PNP wild type; type: biochemical; conditions: other: ribosylation, 40 mM HEPES buffer, pH 7, α-D-ribose-1-phosphate, standard errors ~15%
Procedure: as §3, §4

[11] = aqueous, pKa ±0.1, lower (basic) value, protonation to the cation
[12] = aqueous, pKa ±0.1, upper (acidic) value, deprotonation to the monoanion
[13] = no reaction traces even with 10-fold higher enzyme concentrations
[14] = 40 mM HEPES buffer, pH 7, α-D-ribose-1-phosphate

T5 sequence (P0ABP8 2-239 D205N): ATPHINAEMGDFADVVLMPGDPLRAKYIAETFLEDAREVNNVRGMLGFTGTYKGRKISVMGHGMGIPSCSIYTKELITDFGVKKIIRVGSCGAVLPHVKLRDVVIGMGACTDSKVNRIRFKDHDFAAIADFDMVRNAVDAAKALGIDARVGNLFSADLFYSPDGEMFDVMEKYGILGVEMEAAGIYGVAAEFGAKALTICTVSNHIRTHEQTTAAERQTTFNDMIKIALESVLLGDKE

COc1nc2nccn2c2[nH]cnc12 [N^2,3-etheno-O^6-methylguanine]
Ki (E. coli PNP [1]; competition with guanine in ribosylation, competitive model, average of 3 determinations, read-out: estimated Kiapp): 7.5 ± 0.8 µM
pKa [2, 11]: ~3.5
pKa [2, 12]: ~9
Vmax (relative) [3]: ~0.3
inhibition of guanine ribosylation (in words) (calf PNP [4]): no such inhibition is observed
Vmax (relative) [5]: <0.1

O=c1c2ncn([C@@H]3O[C@H](CO)[C@@H](O)[C@H]3O)c2nc2[nH]ccn12 [1,N^2-ethenoguanosine]
phosphorolysis (in words) (calf PNP [6]): no marked phosphorolysis
pKa [2, 12]: 8.8

1,N^6-etheno-N^6-β-D-ribosylisoguanosine [N^6-riboside (7)]
phosphorolysis (in words) (calf PNP [6]): only slowly deribosylated
phosphorolysis (in words) (E. coli PNP [7]): much more rapidly

1,N^6-etheno-N7-β-D-ribosylisoguanosine [N7-riboside (6)]
phosphorolysis (in words) (E. coli PNP [7]): Even more rapid

O=c1[nH]c2c(ncn2[C@@H]2O[C@H](CO)[C@@H](O)[C@H]2O)c2nccn12 [N9-riboside (5), 1,N^6-etheno-N9-β-D-ribosylisoguanosine]
phosphorolysis (in words) (calf PNP [6]): not phosphorolysed
pKa [2, 11]: 2.4
pKa [2, 12]: 7.1
phosphorolysis (in words) (E. coli PNP [7]): fairly rapid

O=c1nc2[nH]ccn2c2nc[nH]c12 [N^2,3-ethenoguanine]
Ki (E. coli PNP [1]; guanine as substrate of the ribosylation reaction, possibly competitive inhibition, read-out: estimated Ki): 38 µM
pKa [2, 11]: ~2.5
pKa [2, 12]: 8.8
substrate activity in ribosylation (in words) [3, 13]: not a substrate
Vmax (relative) [3]: <0.1
substrate activity in ribosylation (in words) [5, 13]: not a substrate
Vmax (relative) [5]: <0.1

OC[C@H]1O[C@@H](n2cnc3c2ncn2ccnc32)[C@H](O)[C@@H]1O [1,N^6-ethenoadenosine]
phosphorolysis (in words) (E. coli PNP [8]): rapidly phosphorolysed
phosphorolysis (in words) (calf PNP [9]): resistant

1,N^6-ethenoisoguanine
Vmax (relative) (E.coli PNP-mutantD204N): >5
Approximate Product Ratio: N9: N7-riboside: N^6-riboside (calf PNP-mutantN243D; [14]): predominantly N^6
Vmax (relative) (calf PNP-mutantN243D; relative to Vmax of guanine ribosylation under the same conditions (=100), 40 mM HEPES, pH 7, error ~10%): ~1
pKa ±0.1, lower (basic) value ([2]; aqueous, protonation to the cation): 3.5
fitted pKa, lower (basic) value ([2]; spectrophotometric titration, pH 2.9 to 5.5, ±0.2 (Figure S2)): 3.5
fitted pKa, upper (acidic) value ([2]; spectrophotometric titration, pH 6.25 to 11.5, ±0.2 (Figure S2)): 8.1
pH of probable second deprotonation ([2]; spectrophotometric titrations): ~ 13
Km ([3]; 50 mM HEPS buffer, pH 7.3, R1P 0.5 mM, 25 °C (Figure S3), read-out: Km from double-reciprocal plots): 98 µM
Vmax (relative) [3]: ~24
Km ([3]; ribosylation, 40 mM HEPES buffer, pH 7, α-D-ribose-1-phosphate, standard errors ~15%, read-out: Km): 98 µM
Vmax (relative) [5]: 1.6
Km ([5]; ribosylation, 40 mM HEPES buffer, pH 7, α-D-ribose-1-phosphate, standard errors ~15%): ~160 µM

O=c1c2nc[nH]c2[nH]c2nccn12 [1,N^2-ethenoguanine, 5,9-dihydro-9-oximidazo{1,2-a}purine]
Approximate Product Ratio: N9: N7-riboside: N^6-riboside (E.coli PNP-mutantD204N; [14]): predominantly N9
Vmax (relative) (E.coli PNP-mutantD204N): >15
ribosylation rate, fold slower than the ribosylation of guanine (calf PNP-mutantN243D; pH 7.3, HEPES buffer, 25 °C): ca. 100 fold
pKa [2, 11]: ~2
pKa [2, 12]: ~9.5
Approximate Product Ratio: N9: N7-riboside: N^6-riboside [3, 14]: predominantly N9
Vmax (relative) [3]: 18
share of the one main product in the reaction mixture (HPLC) ([3]; ribosylation, product identical to the chemically generated nucleoside): > 95%
Approximate Product Ratio: N9: N7-riboside: N^6-riboside [5, 14]: predominantly N9
ribosylation rate, fold slower than the ribosylation of guanine ([5]; pH 7.3, HEPES buffer, 25 °C): ca. 100 fold
Vmax (relative) [5]: <0.5

Nc1nc(=O)[nH]c2c1ncn2[C@@H]1O[C@H](CO)[C@@H](O)[C@H]1O [isoguanosine, reference compound]
phosphorolysis (in words) (calf PNP [6]): did not see any such reaction
Vmax of phosphorolysis, fold lower than that for guanosine (E. coli PNP [7]; data not shown): ca. 40 fold

B1: E.coli PNP-wt (purine-nucleoside phosphorylase) (Escherichia coli K-12) (protein)
chain: ATPHINAEMGDFADVVLMPGDPLRAKYIAETFLEDAREVNNVRGMLGFTGTYKGRKISVMGHGMGIPSCSIYTKELITDFGVKKIIRVGSCGAVLPHVKLRDVVIGMGACTDSKVNRIRFKDHDFAAIADFDMVRNAVDAAKALGIDARVGNLFSADLFYSPDGEMFDVMEKYGILGVEMEAAGIYGVAAEFGAKALTICTVSDHIRTHEQTTAAERQTTFNDMIKIALESVLLGDKE
notes: made in house; host or cells: E. coli
Km [10]: 48 µM
